Publication PMC5423974 (European Journal of Clinical Pharmacology, 2017)

Experiments:
[1] = Dose-exposure proportionality of AUC and Cmax (Power model, scatter plots); assay type: in vivo, human
Method: Dose-exposure proportionality for AUC and Cmax was assessed for non-Japanese Asian subjects using data from Study 86, and for the pooled analysis Western group by applying the Power model to data from the pooled analysis: Log(Y) = α + β•log(Dose) + ε, where Y = AUC or Cmax. Intercept and slope estimates (including point estimate, standard error, and 90% confidence interval [CI]) were provided for each parameter, and dose proportionality plots were generated for AUC and Cmax. All statistical analyses were performed using SAS version 9.2.

ABCG2 = assay: Pharmacogenetic association of genetic variants with dose-normalized PK (linear regression, additive model; random effects meta-analysis); assay type: in vivo, human
Method: (§1) Five of the six genetic variants analyzed (CYP2C19*2, CYP2C19*3, CYP2C19*17, UGT1A1*6, ABCG2 421C > A) were single nucleotide polymorphisms while one genetic variant was a tandem repeat (UGT1A1*28.) Genotyping of the variants was performed using a Luminex CYP2C19 assay (for CYP2C19*2, CYP2C19*3 and CYP2C19*17), Taqman assays (for UGT1A1*6 and ABCG2 421C > A), and fragment analysis (for UGT1A1*28).
(§2) Each genetic variant was tested for any association with dose-normalized AUC, AUC0–12 or Cmax, using linear regression under an additive genetic model (i.e. phenotypic response per additional copy of the variant allele, where 0, 1 or 2 copies can be present at each locus). For each PK parameter Bonferroni’s correction was used to control for multiple testing when assessing statistical significance. A p value below 0.008 (p < 0.05 with Bonferoni correction for 6 tests) was considered statistically significant. Given the variation in frequency of the variant alleles, analyses were performed stratified by ethnic group (Asian, White, Black) across the studies. A combined estimate across populations was obtained using random effects meta-analysis to allow for between-population heterogeneity.
(§3) Genotype distributions were tested for deviation from Hardy-Weinberg equilibrium using Chi-squared tests. All pharmacogenetic analyses were performed using either StataSE version 14.1 or R statistical software version 3.2.2.

CYP2C19 = assay: as above; assay type: in vivo, human
Method: as §1, §2, §3

UGT1A1 = assay: as above; assay type: in vivo, human
Method: as §1, §2, §3

[2] = tested on: cytochrome P450 2C19 (CYP2C19); set-up: method as in earlier work; details: ref 1 Report nos. Be000021–21 and D6244 KMN036, data on file, AstraZeneca; cited from earlier work
[3] = combined across ethnicities, random effects meta-analysis, N 87
[4] = CYP219C*2, combined across ethnicities, random effects meta-analysis, N 87
[5] = CYP219C*3, combined analysis, N 42
[6] = CYP219C*17, combined across ethnicities, random effects meta-analysis, N 87
[7] = UGTA1*6, combined analysis, N 42
[8] = UGTA1*28/37, combined across ethnicities, random effects meta-analysis, N 87

## Cn1cnc2c(F)c(Nc3ccc(Br)cc3Cl)c(C(=O)NOCCO)cc21 [selumetinib, Selumetinib]
[1]; Western group, single doses of 25 to 75 mg
  dose-exposure proportionality (visual assessment of scatter plots, AUC and Cmax): Approximate dose proportionality
[1]; non-Japanese Asian group, 25 to 50 mg
  dose-exposure proportionality (visual assessment of scatter plots, AUC and Cmax): approximate dose proportionality
ABCG2; Black, N 21
  Beta, per-allele change in DN AUC: 0.018 log ng.h/mL/mg
  Beta, per-allele change in DN AUC(0–12): -0.020 log ng.h/mL/mg
  Beta, per-allele change in DN Cmax: -0.463 log ng/mL/mg
ABCG2; East Asian, N 42
  Beta, per-allele change in DN AUC: 0.042 log ng.h/mL/mg
  Beta, per-allele change in DN AUC(0–12): 0.043 log ng.h/mL/mg
  Beta, per-allele change in DN Cmax: 0.104 log ng/mL/mg
ABCG2; White, N 24
  Beta, per-allele change in DN AUC: -0.116 log ng.h/mL/mg
  Beta, per-allele change in DN AUC(0–12): -0.093 log ng.h/mL/mg
  Beta, per-allele change in DN Cmax: -0.119 log ng/mL/mg
ABCG2; [3]
  Beta, per-allele effect on DN AUC: 0.028 log ng.h/mL/mg
  Beta, per-allele effect on DN AUC(0–12): 0.029 log ng.h/mL/mg
  Beta, per-allele effect on DN Cmax: 0.015 log ng/mL/mg
CYP2C19; CYP219C*2, Black, N 21
  Beta, per-allele change in DN AUC: -0.043 log ng.h/mL/mg
  Beta, per-allele change in DN AUC(0–12): -0.010 log ng.h/mL/mg
  Beta, per-allele change in DN Cmax: -0.110 log ng/mL/mg
CYP2C19; CYP219C*2, East Asian, N 42
  Beta, per-allele change in DN AUC: 0.009 log ng.h/mL/mg
  Beta, per-allele change in DN AUC(0–12): 0.011 log ng.h/mL/mg
  Beta, per-allele change in DN Cmax: -0.064 log ng/mL/mg
CYP2C19; CYP219C*2, White, N 24
  Beta, per-allele change in DN AUC: 0.198 log ng.h/mL/mg
  Beta, per-allele change in DN AUC(0–12): 0.242 log ng.h/mL/mg
  Beta, per-allele change in DN Cmax: 0.167 log ng/mL/mg
CYP2C19; [4]
  Beta, per-allele effect on DN AUC: 0.042 log ng.h/mL/mg
  Beta, per-allele effect on DN AUC(0–12): 0.069 log ng.h/mL/mg
  Beta, per-allele effect on DN Cmax: -0.010 log ng/mL/mg
CYP2C19; CYP219C*3, East Asian, N 42
  Beta, per-allele change in DN AUC: 0.063 log ng.h/mL/mg
  Beta, per-allele change in DN AUC(0–12): 0.096 log ng.h/mL/mg
  Beta, per-allele change in DN Cmax: 0.122 log ng/mL/mg
CYP2C19; [5]
  Beta, per-allele effect on DN AUC: 0.063 log ng.h/mL/mg
  Beta, per-allele effect on DN AUC(0–12): 0.096 log ng.h/mL/mg
  Beta, per-allele effect on DN Cmax: 0.122 log ng/mL/mg
CYP2C19; CYP219C*17, Black, N 21
  Beta, per-allele change in DN AUC: 0.090 log ng.h/mL/mg
  Beta, per-allele change in DN AUC(0–12): 0.089 log ng.h/mL/mg
  Beta, per-allele change in DN Cmax: 0.086 log ng/mL/mg
CYP2C19; CYP219C*17, East Asian, N 42
  Beta, per-allele change in DN AUC: -0.104 log ng.h/mL/mg
  Beta, per-allele change in DN AUC(0–12): -0.139 log ng.h/mL/mg
  Beta, per-allele change in DN Cmax: -0.142 log ng/mL/mg
CYP2C19; CYP219C*17, White, N 24
  Beta, per-allele change in DN AUC: -0.116 log ng.h/mL/mg
  Beta, per-allele change in DN AUC(0–12): -0.127 log ng.h/mL/mg
  Beta, per-allele change in DN Cmax: 0.041 log ng/mL/mg
CYP2C19; [6]
  Beta, per-allele effect on DN AUC: 0.004 log ng.h/mL/mg
  Beta, per-allele effect on DN AUC(0–12): -0.014 log ng.h/mL/mg
  Beta, per-allele effect on DN Cmax: 0.037 log ng/mL/mg
UGT1A1; UGTA1*6, East Asian, N 42
  Beta, per-allele change in DN AUC: 0.061 log ng.h/mL/mg
  Beta, per-allele change in DN Cmax: 0.073 log ng/mL/mg
UGT1A1; [7]
  Beta, per-allele effect on DN AUC: 0.061 log ng.h/mL/mg
  Beta, per-allele effect on DN Cmax: 0.073 log ng/mL/mg
UGT1A1; UGTA1*28/37, Black, N 21
  Beta, per-allele change in DN AUC: 0.052 log ng.h/mL/mg
  Beta, per-allele change in DN Cmax: 0.048 log ng/mL/mg
UGT1A1; UGTA1*28/37, East Asian, N 42
  Beta, per-allele change in DN AUC: -0.153 log ng.h/mL/mg
  Beta, per-allele change in DN Cmax: -0.152 log ng/mL/mg
UGT1A1; UGTA1*28/37, White, N 24
  Beta, per-allele change in DN AUC: -0.033 log ng.h/mL/mg
  Beta, per-allele change in DN Cmax: 0.190 log ng/mL/mg
UGT1A1; [8]
  Beta, per-allele effect on DN AUC: -0.055 log ng.h/mL/mg
  Beta, per-allele effect on DN Cmax: 0.016 log ng/mL/mg
[2]
  substrate of enzyme: substrate
